Values quoted from earlier work as cited in patent US20220193127A1, “IMMUNOTHERAPY FOR OPIOID ADDICTION” (Therapeutic Solutions International, Inc., priority 2020, published 2022).

Legend:
[1] = system: dentate gyrus of the hippocampus
microglial cells = conditions: for development of neuropathic pain: in vivo; for microglial activation / proinflammatory cytokines: neuropathic pain
[2] = rats fed for 6 weeks with liquid diet containing moderate doses of ethanol, vs paired controls

| Compound | neurogenesis within the olfactory bulb ([1]; rat model of alcoholism) | decrease in the number of new neurons in the dentate gyrus [1, 2] | increase in cell death in the dentate gyrus [1, 2] | development of neuropathic pain (microglial cells) | microglial activation (microglial cells) | proinflammatory cytokines (microglial cells) |
| --- | --- | --- | --- | --- | --- | --- |
| CCO [ethanol] | not affected | 66.3% | 227-279% | – | – | – |
| CCCn1cnc2c1c(=O)n(CCCCC(C)=O)c(=O)n2C [propentofylline] | – | – | – | suppressing | decrease | inhibit |
| CC(=O)CCCCn1c(=O)c2c(ncn2C)n(C)c1=O [pentoxifylline] | – | – | – | suppressing | decrease | inhibit |
| O=C(O)CC(O)(C(=O)O)C(F)C(=O)O (stereo not drawn) [fluorocitrate] | – | – | – | suppressing | decrease | inhibit |
